We go through 15 molecules from publication PMC4774911, “Biochemical Screening of Five Protein Kinases from Plasmodium falciparum against 14,000 Cell-Active Compounds” (PLoS ONE, 2016).

Assay [1] addresses T1, Plasmodium falciparum protein kinase 6 (PK6) (Plasmodium falciparum, UniProt Q8IDW1).
T1 construct: 6-Histidine (N); made in house
T1 sequence (Q8IDW1 1-305): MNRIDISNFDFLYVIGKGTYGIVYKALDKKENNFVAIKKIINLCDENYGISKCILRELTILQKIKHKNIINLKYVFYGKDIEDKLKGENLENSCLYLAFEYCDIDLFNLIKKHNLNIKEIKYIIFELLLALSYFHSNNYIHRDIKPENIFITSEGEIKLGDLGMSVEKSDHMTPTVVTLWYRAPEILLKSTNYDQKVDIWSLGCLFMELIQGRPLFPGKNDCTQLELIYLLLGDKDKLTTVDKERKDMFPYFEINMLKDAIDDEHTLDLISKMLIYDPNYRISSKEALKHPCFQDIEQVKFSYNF
The experiment in a line: biochemical. The following applies: hits below 1 uM; read-out: PK6 IC50.

For assay [2], the target named is T2, Plasmodium falciparum calcium-dependent protein kinase 1 (CDPK1) (Plasmodium falciparum, UniProt P62344).
T2 construct: 6-Histidine (N); made in house
The experiment in a line: CDPK1 Kinase-Glo ATP-consumption screen and dose-response. Format: biochemical. The following applies: hits below 1 uM; read-out: CDPK1 IC50. An outline of the steps:
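Single-point testing used 1 μM final compound, then dose-response, against CDPK4 and CDPK1 with Syntide-2 (40 μM) as substrate. After 90 min, reactions were halted by 5 mM EGTA, and kinase activity was inferred from depleted ATP via Kinase-Glo luminescence.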
(In general: Kinase-Glo reads ATP consumption through a luciferase reaction.)

The subject of assay [3] is DD2. More on the design: method as in downloaded from ChEMBL. The following applies: ref downloaded from ChEMBL; cited from earlier work.
The subject of assay [4] is 3D7 PFLDH. Details: method as in downloaded from ChEMBL. The following applies: ref downloaded from ChEMBL; cited from earlier work.
The subject of assay [5] is HepG2 cells. The following applies: cited from earlier work.
Assay [6] relates to P. falciparum 3D7 cells. The following applies: 3D7, cited from earlier work.
Assay [7] deals with PKG (Plasmodium falciparum, UniProt Q8I719). As to the kind of experiment: PKG IC50 (supplementary data file). The assay is classed as biochemical. The source says:
Supplement pone.0149996.s003.xls, sheet "combined_1_sorted"

For assay [8], the system named is 3D7 PFLDH. Details: method as in F.J. Gamo et al., Nature 2010; concentration or dose not given beside the values. The following applies: downloaded from ChEMBL, ref F.J. Gamo et al., Nature 2010; cited from earlier work.
The subject of assay [9] is DD2. More on the design: method as in F.J. Gamo et al., Nature 2010. The following applies: downloaded from ChEMBL, ref F.J. Gamo et al., Nature 2010; cited from earlier work.
Setting [10] is: HEPG2, ref downloaded from ChEMBL.
Setting [11] is: downloaded from ChEMBL, ref F.J. Gamo et al., Nature 2010.

Read-outs that look alike come from different tables or passages of the source.

T2 sequence (P62344 whole entry): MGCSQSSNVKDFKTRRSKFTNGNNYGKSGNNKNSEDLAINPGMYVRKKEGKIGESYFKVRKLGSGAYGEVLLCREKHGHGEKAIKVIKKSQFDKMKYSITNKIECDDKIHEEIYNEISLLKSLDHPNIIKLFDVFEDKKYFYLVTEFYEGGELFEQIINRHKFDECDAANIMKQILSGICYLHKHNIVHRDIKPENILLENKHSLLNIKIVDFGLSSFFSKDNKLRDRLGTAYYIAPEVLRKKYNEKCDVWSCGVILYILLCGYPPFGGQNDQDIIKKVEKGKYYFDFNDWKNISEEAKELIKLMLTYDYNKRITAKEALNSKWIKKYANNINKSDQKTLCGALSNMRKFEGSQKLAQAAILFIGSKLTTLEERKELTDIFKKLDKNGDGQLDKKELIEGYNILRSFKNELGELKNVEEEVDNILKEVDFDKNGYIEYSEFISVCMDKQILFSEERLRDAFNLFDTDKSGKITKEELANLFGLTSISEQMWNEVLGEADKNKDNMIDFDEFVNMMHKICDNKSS
Sequence of PKG (Q8I719 whole entry): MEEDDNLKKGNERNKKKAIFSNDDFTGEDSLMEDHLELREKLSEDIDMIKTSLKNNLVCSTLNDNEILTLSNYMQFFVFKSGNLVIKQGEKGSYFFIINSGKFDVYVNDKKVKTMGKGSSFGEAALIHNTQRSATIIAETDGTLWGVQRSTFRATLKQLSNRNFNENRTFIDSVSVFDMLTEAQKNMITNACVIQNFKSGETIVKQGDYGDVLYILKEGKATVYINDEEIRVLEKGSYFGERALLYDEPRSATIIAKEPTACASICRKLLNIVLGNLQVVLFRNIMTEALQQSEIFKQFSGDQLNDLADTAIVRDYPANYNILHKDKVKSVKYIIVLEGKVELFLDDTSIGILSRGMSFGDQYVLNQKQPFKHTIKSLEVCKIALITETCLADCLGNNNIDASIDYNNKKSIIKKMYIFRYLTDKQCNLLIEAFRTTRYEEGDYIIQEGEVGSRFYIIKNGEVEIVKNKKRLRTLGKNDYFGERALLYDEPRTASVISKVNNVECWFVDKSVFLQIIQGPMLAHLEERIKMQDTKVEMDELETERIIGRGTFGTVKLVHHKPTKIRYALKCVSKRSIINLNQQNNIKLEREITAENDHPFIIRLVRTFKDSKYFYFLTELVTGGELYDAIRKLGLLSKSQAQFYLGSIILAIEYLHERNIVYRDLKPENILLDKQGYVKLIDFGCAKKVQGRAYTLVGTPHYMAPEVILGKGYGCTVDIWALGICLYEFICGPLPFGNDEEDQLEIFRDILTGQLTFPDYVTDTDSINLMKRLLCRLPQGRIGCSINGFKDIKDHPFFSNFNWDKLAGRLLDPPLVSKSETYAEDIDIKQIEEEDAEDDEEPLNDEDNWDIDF

As to `NCCNC(=O)c1ccc(-c2cnc3[nH]cc(-c4ccc(C(N)=O)cc4)c3c2)cc1` [TCMDC-132359], the IC50 (commonly the concentration needed to halve the response being measured) in [1] was found to be 931 nM; in [2] it was 24 nM. Further, the PCT_INHB_DD2 in assay [3] is on record as 98. Moreover, in assay [4], the PCT_INHIB_3D7_PFLDH is reported as 0. For the same molecule, in [5] (setting [10]), the PCT_INHIB_HEPG2 was 2. For the same molecule, in assay [6] (ref downloaded from ChEMBL), the PCT_IHB_3D7 was 99. Also, the pXC50_3D7 in assay [6] (ref downloaded from ChEMBL) is on record as 6.7676.
For the molecule `NCCNS(=O)(=O)c1ccc(-c2ccnc3[nH]c(-c4ccncc4)cc23)cc1.O=C(O)C(F)(F)F` [TCMDC-133364], the IC50 in assay [1] turned out to be 207 nM. Also, the IC50 in [2] worked out at 422 nM. Besides, in [3], the PCT_INHB_DD2 is given as 95. Moreover, in assay [4], the PCT_INHIB_3D7_PFLDH is given as 3. The PCT_INHIB_HEPG2 in [5] (setting [10]) was 0. Further, in [6] (ref downloaded from ChEMBL), the PCT_IHB_3D7 was 96 and the pXC50_3D7 is given as 6.076.
In the case of `Cn1cc(-c2ccnc3[nH]c(-c4cccc(CNC5CCC(O)CC5)c4)cc23)cn1.O=C(O)C(F)(F)F` (stereo not shown) [TCMDC-133805], the IC50 in assay [1] was 177 nM; in assay [2], 46 nM. The PCT_INHB_DD2 in assay [3] is reported as 82. In addition, the PCT_INHIB_3D7_PFLDH in assay [4] is listed as 2. For the same molecule, the PCT_INHIB_HEPG2 in [5] (setting [10]) is 48. Further, the PCT_IHB_3D7 in assay [6] (ref downloaded from ChEMBL) is listed as 95. Moreover, the pXC50_3D7 in [6] (ref downloaded from ChEMBL) is reported as 6.044.
Take `CN(C)Cc1cccc(-c2cc3c(-c4cnn(C)c4)c(Cl)cnc3[nH]2)c1` [TCMDC-134147]: the IC50 in [1] turned out to be 128 nM. In [2], the IC50 was 402 nM. Moreover, the PCT_INHB_DD2 in assay [3] was 21. Also, the PCT_INHIB_3D7_PFLDH in assay [4] is given as 0. The PCT_INHIB_HEPG2 in assay [5] (setting [10]) is 75. In assay [6] (ref downloaded from ChEMBL), the PCT_IHB_3D7 is on record as 96 and the pXC50_3D7 is reported as 6.043.
As to `COc1c(CN2CCOCC2)cccc1-c1cc2c(-c3ccc(C(=O)O)c(C(C)C)c3)ccnc2[nH]1.O=C(O)C(F)(F)F` [TCMDC-135049], the IC50 in [1] was determined as 695 nM. Besides, in assay [3], the PCT_INHB_DD2 is given as 90. In addition, the PCT_INHIB_3D7_PFLDH in assay [4] was 0. Also, in [5] (setting [10]), the PCT_INHIB_HEPG2 is reported as 44. Besides, in assay [6] (ref downloaded from ChEMBL), the PCT_IHB_3D7 is 98 and the pXC50_3D7 is reported as 6.1293.
On to `COc1c(CN2CCCC2)cccc1-c1cc2c(-c3ccc(C(=O)O)c(C(C)C)c3)ccnc2[nH]1.O=C(O)C(F)(F)F` [TCMDC-135050], for which the IC50 in [1] turned out to be 541 nM. Besides, the PCT_INHB_DD2 in assay [3] was 98. Besides, the PCT_INHIB_3D7_PFLDH in [4] is recorded as 0. Besides, the PCT_INHIB_HEPG2 in assay [5] (setting [10]) is given as 56. In [6] (ref downloaded from ChEMBL), the PCT_IHB_3D7 is 99 and the pXC50_3D7 is on record as 6.357.
Turning to `NS(=O)(=O)c1ccc(Nc2nccc(-c3c(-c4cccc(NC(=O)c5c(F)cccc5F)c4)nn4ccccc34)n2)cc1` [TCMDC-135528], the IC50 in assay [1] stood at 140 nM; in assay [2], 48 nM. The PCT_INHB_DD2 in assay [3] is 89. Further, the PCT_INHIB_3D7_PFLDH in assay [4] was 0. The PCT_INHIB_HEPG2 in assay [5] (setting [10]) is on record as 83. The PCT_IHB_3D7 in assay [6] (ref downloaded from ChEMBL) is 93. In addition, the pXC50_3D7 in assay [6] (ref downloaded from ChEMBL) is reported as 6.118.
For `O=C(NC1CC1)c1ccc(Nc2nccc(-c3c(-c4cccc(NC(=O)c5c(F)cccc5F)c4)nn4ccccc34)n2)cc1` [TCMDC-136002], the values for the IC50 in [2] and in [7] were 26 nM and > 10000 nM, respectively. In addition, in assay [3], the PCT_INHB_DD2 is on record as 96. Also, the PCT_INHIB_3D7_PFLDH in assay [4] is recorded as 0. For the same molecule, the PCT_INHIB_HEPG2 in assay [5] (setting [10]) was 84. In addition, the PCT_IHB_3D7 in assay [6] (ref downloaded from ChEMBL) is given as 94. The pXC50_3D7 in [6] (ref downloaded from ChEMBL) was 6.386.
With `Cl.NCCCOc1cnc(-c2ccccc2)c2nc(-c3nonc3N)n(CCc3ccccc3)c12` [TCMDC-136216], the values for the IC50 in assay [2] and in [7] were 47 nM and > 10000 nM, respectively. Besides, the PCT_INHIB_3D7_PFLDH in [8] is given as 0%. For the same molecule, in [9], the PCT_INHB_DD2 is 86%. In assay [5] (HepG2, downloaded from ChEMBL, ref F.J. Gamo et al., Nature 2010), the PCT_INHIB_HEPG2 is reported as 56%. Further, the PCT_IHB_3D7 in assay [6] (setting [11]) is 93%. For the same molecule, the pXC50_3D7 in [6] (setting [11]) is 5.895.
Take `Cc1ccc(O)cc1Nc1ccnc2cc(-c3cccc(CNCCS(C)(=O)=O)c3)ccc12` [TCMDC-138472]: in assay [2], the IC50 stood at 125 nM. In addition, in assay [3], the PCT_INHB_DD2 is reported as 100. Besides, the PCT_INHIB_3D7_PFLDH in assay [4] is on record as 2. Moreover, the PCT_INHIB_HEPG2 in assay [5] (setting [10]) is given as 9. Moreover, in assay [6] (ref downloaded from ChEMBL), the PCT_IHB_3D7 is 99 and the pXC50_3D7 is recorded as 6.078.
With `COCCNCc1cccc(-c2ccc3c(Nc4ccc(Oc5ccccc5)cc4)ccnc3c2)c1` [TCMDC-138478], in assay [2], the IC50 came to 979 nM. Further, the PCT_INHB_DD2 in assay [3] is reported as 99. Further, the PCT_INHIB_3D7_PFLDH in [4] is reported as 2. In addition, the PCT_INHIB_HEPG2 in assay [5] (setting [10]) is on record as 25. Further, in [6] (ref downloaded from ChEMBL), the PCT_IHB_3D7 is 100 and the pXC50_3D7 is recorded as 6.287.
As for `COCCNCc1cccc(-c2ccc3c(Nc4ccc(Oc5cccnc5)cc4)ccnc3c2)c1` [TCMDC-138487], the IC50 in assay [2] came out at 913 nM. Also, in assay [3], the PCT_INHB_DD2 is reported as 99. The PCT_INHIB_3D7_PFLDH in assay [4] was 0. Besides, the PCT_INHIB_HEPG2 in assay [5] (setting [10]) was 58. In assay [6] (ref downloaded from ChEMBL), the PCT_IHB_3D7 was 100 and the pXC50_3D7 is 6.749.
As for `CS(=O)(=O)CCNCc1cccc(-c2ccc3c(Nc4ccc(Oc5cccnc5)cc4)ccnc3c2)c1` [TCMDC-138488], the IC50 in assay [2] was 966 nM. In assay [3], the PCT_INHB_DD2 is recorded as 99. Further, in [4], the PCT_INHIB_3D7_PFLDH is 4. Moreover, the PCT_INHIB_HEPG2 in [5] (setting [10]) is listed as 27. Besides, in [6] (ref downloaded from ChEMBL), the PCT_IHB_3D7 was 100 and the pXC50_3D7 is 6.847.
In the case of `c1cncc(Oc2ccc(Nc3ccnc4cc(-c5cccc(CNCCN6CCOCC6)c5)ccc34)cc2)c1` [TCMDC-138492], in assay [2], the IC50 came to 705 nM. In addition, the PCT_INHB_DD2 in assay [3] is recorded as 99. For the same molecule, the PCT_INHIB_3D7_PFLDH in assay [4] was 4. Moreover, the PCT_INHIB_HEPG2 in assay [5] (setting [10]) is given as 14. In addition, in assay [6] (ref downloaded from ChEMBL), the PCT_IHB_3D7 is recorded as 100 and the pXC50_3D7 is on record as 6.952.
Regarding `CN(C)CCNCc1cccc(-c2ccc3c(Nc4ccc(Oc5ccccn5)cc4)ccnc3c2)c1` [TCMDC-138493], the IC50 in [2] turned out to be 845 nM. Moreover, in assay [3], the PCT_INHB_DD2 is on record as 100. The PCT_INHIB_3D7_PFLDH in assay [4] is 2. Besides, the PCT_INHIB_HEPG2 in assay [5] (setting [10]) is 27. Besides, in [6] (ref downloaded from ChEMBL), the PCT_IHB_3D7 is 99 and the pXC50_3D7 is 6.633.
